Tests used:
A2780 [1] = experiment: Cell cycle arrest in human A2780 cells assessed as accumulation at G2/M phase at 1.2 uM after 48 hrs by propidium iodide/RNase-staining based flow cytometric analysis (reference value: 12.9 +/- 1.4%); assay type: functional
A2780 [2] = experiment: Cytotoxicity against human A2780 cells assessed as morphological changes after 48 hrs by acridine orange/propidium iodide staining based fluorescence microscopic method; assay type: functional, cell-based
A2780 [3] = experiment: Cell cycle arrest in human A2780 cells assessed as accumulation at sub-G1 phase at 1.2 uM after 48 hrs by propidium iodide/RNase-staining based flow cytometric analysis; assay type: functional
[4] = Selectivity index, ratio of EC50 for mouse NIH/3T3 cells to EC50 for human A2780 cells; assay type: toxicity; conditions: NIH/3T3 cells and A2780 cells, read-out: Ratio EC50
A2780 [5] = experiment: Induction of apoptosis in human A2780 cells assessed as secondary necrotic cells at 2 uM after 48 hrs by Annexin V-FITC/propidium iodide staining-based flow cytometric analysis (reference value: 8.2 +/- 0.7%); assay type: functional
518A2 = experiment: Cytotoxicity against human 518A2 cells after 96 hrs by sulforhodamine-B assay; assay type: functional, cell-based; conditions: 518A2, 96 h
A2780 [6] = experiment: Cell cycle arrest in human A2780 cells assessed as accumulation at sub-G1 phase at 2 uM after 48 hrs by propidium iodide/RNase-staining based flow cytometric analysis; assay type: functional
A549 = experiment: Cytotoxicity against human A549 cells after 96 hrs by sulforhodamine-B assay; assay type: functional, cell-based; conditions: A549, 96 h
A2780 [7] = experiment: Cell cycle arrest in human A2780 cells assessed as accumulation at S phase at 2 uM after 48 hrs by propidium iodide/RNase-staining based flow cytometric analysis (reference value: 29.6 +/- 3.1%); assay type: functional
A2780 [8] = experiment: Cell cycle arrest in human A2780 cells assessed as accumulation at G0/G1 phase at 2 uM after 48 hrs by propidium iodide/RNase-staining based flow cytometric analysis (reference value: 57.5 +/- 4.5%); assay type: functional
A2780 [9] = experiment: Cell cycle arrest in human A2780 cells assessed as accumulation at G0/G1 phase at 1.2 uM after 48 hrs by propidium iodide/RNase-staining based flow cytometric analysis (reference value: 57.5 +/- 4.5%); assay type: functional
HT-29 = experiment: Cytotoxicity against human HT-29 cells after 96 hrs by sulforhodamine-B assay; assay type: functional, cell-based; conditions: HT-29, 96 h
A2780 [10] = experiment: Induction of apoptosis in human A2780 cells assessed as necrotic cells at 1.2 uM after 48 hrs by Annexin V-FITC/propidium iodide staining-based flow cytometric analysis (reference value: 10.6 +/- 1.2%); assay type: functional
FaDu = experiment: Cytotoxicity against human FADU cells after 96 hrs by sulforhodamine-B assay; assay type: functional, cell-based
MCF7 = experiment: Cytotoxicity against human MCF7 cells after 96 hrs by sulforhodamine-B assay; assay type: functional, cell-based; conditions: MCF7, 96 h
A2780 [11] = experiment: Induction of apoptosis in human A2780 cells assessed as secondary necrotic cells at 1.2 uM after 48 hrs by Annexin V-FITC/propidium iodide staining-based flow cytometric analysis (reference value: 8.2 +/- 0.7%); assay type: functional
NIH3T3 = experiment: Cytotoxicity against mouse NIH/3T3 cells after 96 hrs by sulforhodamine-B assay; assay type: cell-based; conditions: NIH3T3, 96 h
A2780 [12] = experiment: Induction of apoptosis in human A2780 cells assessed as necrotic cells at 2 uM after 48 hrs by Annexin V-FITC/propidium iodide staining-based flow cytometric analysis (reference value: 10.6 +/- 1.2%); assay type: functional
A2780 [13] = experiment: Induction of apoptosis in human A2780 cells assessed as vital cells at 1.2 uM after 48 hrs by Annexin V-FITC/propidium iodide staining-based flow cytometric analysis (reference value: 78.4 +/- 2.1%); assay type: functional
A2780 [14] = experiment: Cell cycle arrest in human A2780 cells assessed as accumulation at S phase at 1.2 uM after 48 hrs by propidium iodide/RNase-staining based flow cytometric analysis (reference value: 29.6 +/- 3.1%); assay type: functional
A2780 [15] = experiment: Cytotoxicity against human A2780 cells after 96 hrs by sulforhodamine-B assay; assay type: functional, cell-based; conditions: A2780, 96 h
A2780 [16] = experiment: Induction of apoptosis in human A2780 cells assessed as vital cells at 2 uM after 48 hrs by Annexin V-FITC/propidium iodide staining-based flow cytometric analysis (reference value: 78.4 +/- 2.1%); assay type: functional
A2780 [17] = experiment: Induction of apoptosis in human A2780 cells assessed as apoptotic cells at 1.2 uM after 48 hrs by Annexin V-FITC/propidium iodide staining-based flow cytometric analysis (reference value: 2.8 +/- 2.1%); assay type: functional
A2780 [18] = experiment: Induction of apoptosis in human A2780 cells assessed as apoptotic cells at 2 uM after 48 hrs by Annexin V-FITC/propidium iodide staining-based flow cytometric analysis (reference value: 2.8 +/- 2.1%); assay type: functional
A2780 [19] = experiment: Cell cycle arrest in human A2780 cells assessed as accumulation at G2/M phase at 2 uM after 48 hrs by propidium iodide/RNase-staining based flow cytometric analysis (reference value: 12.9 +/- 1.4%); assay type: functional

CC(=O)O[C@@H]1C[C@]2(C)[C@H]3CC=C4[C@@H]5CC(C)(C)CC[C@]5(C(=O)N(CC(=O)NCc5ccccc5)Cc5ccccc5)CC[C@@]4(C)[C@]3(C)CC[C@H]2C(C)(C)[C@H]1OC(C)=O
Activity (A2780 [1]): 7.6%
Activity (A2780 [2]): Dose-dependent effect
Activity (A2780 [3]): 6.8%
selectivity ratio [4]: 73
Activity (A2780 [5]): 19.8%
EC50 (518A2): 1.2 µM
Activity (A2780 [6]): 4.6%
EC50 (A549): 2.2 µM
Activity (A2780 [7]): 30.7%
Activity (A2780 [8]): 60.3%
Activity (A2780 [9]): 57.1%
EC50 (HT-29): 2.1 µM
Activity (A2780 [10]): 11.6%
EC50 (FaDu): 2.1 µM
EC50 (MCF7): 2.1 µM
Activity (A2780 [11]): 11.5%
EC50 (NIH3T3): 21.9 µM
Activity (A2780 [12]): 16.7%
Activity (A2780 [13]): 72.7%
Activity (A2780 [14]): 28.7%
EC50 (A2780 [15]): 0.3 µM
Activity (A2780 [16]): 55.1%
Activity (A2780 [17]): 4.2%
Activity (A2780 [18]): 8.4%
Activity (A2780 [19]): 5.1%

COC(=O)CNC(=O)CN(Cc1ccoc1)C(=O)[C@]12CCC(C)(C)C[C@H]1C1=CC[C@@H]3[C@@]4(C)CC[C@H](OC(C)=O)C(C)(C)[C@@H]4CC[C@@]3(C)[C@]1(C)CC2
selectivity ratio [4]: 2.5
EC50 (518A2): 6.5 µM
EC50 (A549): 6.5 µM
EC50 (HT-29): 14.3 µM
EC50 (FaDu): 5.9 µM
EC50 (MCF7): 7 µM
EC50 (NIH3T3): 8.9 µM
EC50 (A2780 [15]): 3.5 µM

C=CCN(CC(=O)NC(C)(C)C)C(=O)[C@]12CCC(C)(C)C[C@H]1C1=CC[C@@H]3[C@@]4(C)C[C@@H](OC(C)=O)[C@H](OC(C)=O)C(C)(C)[C@@H]4CC[C@@]3(C)[C@]1(C)CC2
Activity (A2780 [5]): 14.6%
EC50 (518A2): 2.9 µM
Activity (A2780 [6]): 5.3%
EC50 (A549): 4.4 µM
Activity (A2780 [7]): 31.7%
Activity (A2780 [8]): 56.8%
EC50 (HT-29): 3.9 µM
EC50 (FaDu): 4.8 µM
EC50 (MCF7): 4.1 µM
EC50 (NIH3T3): 7.8 µM
Activity (A2780 [12]): 13.7%
EC50 (A2780 [15]): 0.5 µM
Activity (A2780 [16]): 61.7%
Activity (A2780 [18]): 9.9%
Activity (A2780 [19]): 6.3%

CC1(C)CC[C@]2(C(=O)N(CC(=O)NC(C)(C)C)Cc3ccoc3)CC[C@]3(C)C(=CC[C@@H]4[C@@]5(C)CC[C@H](O)C(C)(C)[C@@H]5CC[C@]43C)[C@@H]2C1
EC50 (518A2): 13.9 µM
EC50 (A549): 18.9 µM
EC50 (HT-29): 6.7 µM
EC50 (FaDu): 17.4 µM
EC50 (MCF7): 4.1 µM
EC50 (NIH3T3): 11.8 µM
EC50 (A2780 [15]): 10 µM

CC(=O)O[C@H]1CC[C@]2(C)[C@H]3CC=C4[C@@H]5CC(C)(C)CC[C@]5(C(=O)N(CC(=O)NC(C)C)Cc5ccoc5)CC[C@@]4(C)[C@]3(C)CC[C@H]2C1(C)C
EC50 (518A2): 6.5 µM
EC50 (A549): 7.5 µM
EC50 (HT-29): 9.6 µM
EC50 (FaDu): 12.5 µM
EC50 (MCF7): 16.7 µM
EC50 (NIH3T3): 10.1 µM
EC50 (A2780 [15]): 3.6 µM

CC(=O)O[C@H]1CC[C@]2(C)[C@H]3CC=C4[C@@H]5CC(C)(C)CC[C@]5(C(=O)N(CC(=O)NC(C)(C)C)Cc5cccc(F)c5)CC[C@@]4(C)[C@]3(C)CC[C@H]2C1(C)C
EC50 (518A2): > 30 µM
EC50 (A549): > 30 µM
EC50 (HT-29): > 30 µM
EC50 (FaDu): > 30 µM
EC50 (MCF7): > 30 µM
EC50 (NIH3T3): > 30 µM
EC50 (A2780 [15]): 10.4 µM

CC(=O)O[C@@H]1C[C@]2(C)[C@H]3CC=C4[C@@H]5CC(C)(C)CC[C@]5(C(=O)N(CC(=O)NCc5ccccc5)Cc5ccoc5)CC[C@@]4(C)[C@]3(C)CC[C@H]2C(C)(C)[C@H]1OC(C)=O
EC50 (518A2): 13.1 µM
EC50 (A549): 5.4 µM
EC50 (HT-29): 9.9 µM
EC50 (FaDu): 14.1 µM
EC50 (MCF7): 3.4 µM
EC50 (NIH3T3): 6.5 µM
EC50 (A2780 [15]): 2.1 µM

CC(=O)O[C@H]1CC[C@]2(C)[C@H]3CC=C4[C@@H]5CC(C)(C)CC[C@]5(C(=O)N(CC(=O)NC(C)(C)C)Cc5ccccc5)CC[C@@]4(C)[C@]3(C)CC[C@H]2C1(C)C
selectivity ratio [4]: > 11
EC50 (518A2): 15 µM
EC50 (A549): > 30 µM
EC50 (HT-29): > 30 µM
EC50 (FaDu): 16 µM
EC50 (MCF7): 14.1 µM
EC50 (NIH3T3): > 30 µM
EC50 (A2780 [15]): 2.7 µM

CC(=O)O[C@H]1CC[C@]2(C)[C@H]3CC=C4[C@@H]5CC(C)(C)CC[C@]5(C(=O)N(CC(=O)NCc5ccccc5)Cc5ccccc5)CC[C@@]4(C)[C@]3(C)CC[C@H]2C1(C)C
EC50 (518A2): 13.5 µM
EC50 (A549): > 30 µM
EC50 (HT-29): > 30 µM
EC50 (FaDu): 20.3 µM
EC50 (MCF7): > 30 µM
EC50 (NIH3T3): > 30 µM
EC50 (A2780 [15]): 5.4 µM

CCCCN(CC(=O)NCc1ccccc1)C(=O)[C@]12CCC(C)(C)C[C@H]1C1=CC[C@@H]3[C@@]4(C)CC[C@H](OC(C)=O)C(C)(C)[C@@H]4CC[C@@]3(C)[C@]1(C)CC2
EC50 (518A2): 8.2 µM
EC50 (A549): > 30 µM
EC50 (HT-29): > 30 µM
EC50 (FaDu): 19.8 µM
EC50 (MCF7): > 30 µM
EC50 (NIH3T3): > 30 µM
EC50 (A2780 [15]): 4.4 µM

C=CCN(CC(=O)NC(C)(C)C)C(=O)[C@]12CCC(C)(C)C[C@H]1C1=CC[C@@H]3[C@@]4(C)CC[C@H](OC(C)=O)C(C)(C)[C@@H]4CC[C@@]3(C)[C@]1(C)CC2
EC50 (518A2): 22.5 µM
EC50 (A549): 24.2 µM
EC50 (HT-29): > 30 µM
EC50 (FaDu): > 30 µM
EC50 (MCF7): 12.1 µM
EC50 (NIH3T3): > 30 µM
EC50 (A2780 [15]): 12.5 µM

C=CCN(CC(=O)NCC(=O)OC)C(=O)[C@]12CCC(C)(C)C[C@H]1C1=CC[C@@H]3[C@@]4(C)CC[C@H](OC(C)=O)C(C)(C)[C@@H]4CC[C@@]3(C)[C@]1(C)CC2
selectivity ratio [4]: 2.1
EC50 (518A2): 7.7 µM
EC50 (A549): 6.3 µM
EC50 (HT-29): 11.1 µM
EC50 (FaDu): 12.2 µM
EC50 (MCF7): 4.6 µM
EC50 (NIH3T3): 7.3 µM
EC50 (A2780 [15]): 3.5 µM

From ChEMBL document CHEMBL4196076, “An access to a library of novel triterpene derivatives with a promising pharmacological potential by Ugi and Passerini multicomponent reactions” (Eur J Med Chem, 2018)
